pEC50: −log10 of the molar value. Read-outs that look alike come from different tables or passages of the source. Each block holds one compound with its values, some of them ahead of it.
How the values were obtained:
hPPARα chimeric receptor = target: T1, hPPARα chimeric receptor (Homo sapiens, UniProt Q07869); test: Transient transfection assay in HepG2 cells, Gal4-hPPARα chimeric receptor, luciferase reporter (Test A); format: cell-based
T1 construct: "expression plasmids encoding hPPARα, hPPARβ or mPPARγ chimeric receptors"
T1 sequence (Q07869 200-468 limits assumed): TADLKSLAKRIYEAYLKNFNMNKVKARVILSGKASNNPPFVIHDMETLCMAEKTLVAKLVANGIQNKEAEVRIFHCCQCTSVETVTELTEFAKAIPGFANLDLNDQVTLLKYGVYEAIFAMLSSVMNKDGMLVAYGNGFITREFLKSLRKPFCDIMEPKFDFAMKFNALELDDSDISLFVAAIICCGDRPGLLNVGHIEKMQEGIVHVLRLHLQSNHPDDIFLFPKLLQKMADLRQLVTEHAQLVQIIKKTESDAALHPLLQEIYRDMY
Experimental: (§1) 1. Test A. Transient Transfections Assay Using the HepG2 Hepatoma Cell Line.
HepG2 cells were transiently transfected with an expression plasmids encoding hPPARα, hPPARβ or mPPARγ chimeric receptors and a reporter containing the yeast upstream activating sequence (UAS) upstream of the viral E1B promoter controlling a luciferase reporter gene. In addition, the plasmid pRSVβ-gal was used to control for transfection efficiency. HepG2 cells were grown in DMEM supplemented with 10% FBS and […] non-essential amino acid. On the first day, cells were split into 100 mm dishes at 2.5×10^6/dish and incubated overnight at 37° C./5% CO2. On the second day the cells were transiently transfected with plasmid DNA encoding a chimeric receptor, the luciferase reporter gene; and β-gal. For each 100 mm dish, 15 μg of lucifease reporter (PG5E1b) DNA, 15 μg of Gal4-PPAR chimeric receptor DNA, and 1.5 μg of β-gal plasmid DNA were mixed with 1.4 ml of opti-MEM in the tube. 28 μl of LipoFectamine-2000 reagent was added to 1.4 ml of opti-MEM in the tube, and incubate for 5 min at RT. The diluted Lipofectamine-2000 reagent was combined with the DNA mixture, and incubate for 20 min at RT. After fresh medium was added to each 100 mm dish of cells, 2.8 ml of Lipofectamine2000-DNA mixture was added dropwise to the 100 mm dish containing 14 ml of medium, and incubate 37° C. overnight. On day three cells were trypsinized off the 100 mm dishes and re-plated on 96 well plates. Cells were plated at 2.5×10^4 cells per well in 150 μl of media and 50 μl of compound diluted by media was added. The test compounds added were in the range from 50 μM to 50 pM. After addition of compounds, the plates were incubated at 37° C. for 24 hours. Subsequently cells were washed with once with 100 μl of PBS, lysed, and processed for measuring luciferase and β-gal activity using Dual-Light luciferase kit from Tropix®, according to the manufacturer's recommendations, on an EG&G Bethold MicroLumat LB96P luminometer. EC50 values were obtained using the GraphPad Prism™ program. […] Accordingly, the compounds of the present invention should find considerable therapeutic applications for hypercholesterolemia and hyperlipidemia.

hPPARβ chimeric receptor = target: T2, hPPARβ chimeric receptor (Homo sapiens, UniProt Q03181); test: Transient transfection assay in HepG2 cells, Gal4-hPPARβ chimeric receptor, luciferase reporter (Test A); format: cell-based
T2 construct: "expression plasmids encoding hPPARα, hPPARβ or mPPARγ chimeric receptors"
T2 sequence (Q03181 171-441 limits assumed): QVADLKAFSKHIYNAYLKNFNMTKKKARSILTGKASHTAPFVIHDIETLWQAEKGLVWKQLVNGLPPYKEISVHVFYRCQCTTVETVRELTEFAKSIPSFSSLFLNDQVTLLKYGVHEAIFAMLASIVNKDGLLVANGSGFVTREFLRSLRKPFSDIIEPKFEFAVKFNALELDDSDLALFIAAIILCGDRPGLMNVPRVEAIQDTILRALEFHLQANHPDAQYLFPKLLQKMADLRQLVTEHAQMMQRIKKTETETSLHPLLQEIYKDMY
Experimental: as §1
HepG2 cells were transiently transfected with an expression plasmids encoding hPPARα, hPPARβ or mPPARγ chimeric receptors and a reporter containing the yeast upstream activating sequence (UAS) upstream of the viral E1B promoter controlling a luciferase reporter gene. In addition, the plasmid pRSVβ-gal was used to control for transfection efficiency. HepG2 cells were grown in DMEM supplemented with 10% FBS and […] non-essential amino acid. On the first day, cells were split into 100 mm dishes at 2.5×10^6/dish and incubated overnight at 37° C./5% CO2. On the second day the cells were transiently transfected with plasmid DNA encoding a chimeric receptor, the luciferase reporter gene; and β-gal. For each 100 mm dish, 15 μg of lucifease reporter (PG5E1b) DNA, 15 μg of Gal4-PPAR chimeric receptor DNA, and 1.5 μg of β-gal plasmid DNA were mixed with 1.4 ml of opti-MEM in the tube. 28 μl of LipoFectamine-2000 reagent was added to 1.4 ml of opti-MEM in the tube, and incubate for 5 min at RT. The diluted Lipofectamine-2000 reagent was combined with the DNA mixture, and incubate for 20 min at RT. After fresh medium was added to each 100 mm dish of cells, 2.8 ml of Lipofectamine2000-DNA mixture was added dropwise to the 100 mm dish containing 14 ml of medium, and incubate 37° C. overnight. On day three cells were trypsinized off the 100 mm dishes and re-plated on 96 well plates. Cells were plated at 2.5×10^4 cells per well in 150 μl of media and 50 μl of compound diluted by media was added. The test compounds added were in the range from 50 μM to 50 pM. After addition of compounds, the plates were incubated at 37° C. for 24 hours. Subsequently cells were washed with once with 100 μl of PBS, lysed, and processed for measuring luciferase and β-gal activity using Dual-Light luciferase kit from Tropix®, according to the manufacturer's recommendations, on an EG&G Bethold MicroLumat LB96P luminometer. EC50 values were obtained using the GraphPad Prism™ program.

[1] = HepG2 cells, hPPARα chimeric receptor, luciferase reporter, 24 hours, read-out: EC50-α (Hep G2-hAlpha EC50)

Compound: Cc1nc(-c2ccc(C(F)(F)F)cc2)sc1CSc1ccc(CC(C(=O)O)n2cccc2)cc1 (stereo not drawn) [Example 24, 3-{4-[4-Methtyl-2-(4-trifluoromethyl-phenyl)-thiazol-5-ylmethylsulfanyl]-phenyl}-2-pyrrol-1-yl-propionic acid]
EC50 (hPPARα chimeric receptor; [1]): 2000 µM
EC50-β (Hep G2-hBeta EC50) (hPPARβ chimeric receptor; HepG2 cells, hPPARβ chimeric receptor, luciferase reporter, 24 hours): 2000 µM

Compound: Cc1cc(SCc2sc(-c3ccc(C(F)(F)F)cc3)nc2C)c(F)cc1OCC(=O)O [Example 26, 2-[5-fluoro-2-methyl-4-({4-methyl-2-[4-(trifluoromethyl)phenyl](1,3-thiazol-5-yl)}methylthio)phenoxy]acetic acid]
pEC50 (hPPARα chimeric receptor; [1]): 6.77
pEC50 (hPPARβ chimeric receptor): 10.15

Compound: Cc1cc(SCc2sc(-c3ccc(C(F)(F)F)cc3)nc2C)c(Cl)cc1OCC(=O)O [Example 31, {5-Chloro-2-methyl-4-[4-methyl-2-(4-trifluoromethyl-phenyl)-thiazol-5-ylmethylsulfanyl]-phenoxy}-acetic acid]
pEC50 (hPPARα chimeric receptor; [1]): 5.69
pEC50 (hPPARβ chimeric receptor): 6.98

Next, values leading:

pEC50 (hPPARα chimeric receptor; [1]): 6.84
pEC50 (hPPARβ chimeric receptor): 7.46
Compound: COc1cc(SCc2sc(-c3ccc(C(F)(F)F)cc3)nc2C)c(OC)cc1CCC(=O)O [Example 20, 3-{2,5-Dimethoxy-4-[4-methyl-2-(4-trifluoromethyl-phenyl)-thiazol-5-ylmethylsulfanyl]-phenyl}-propionic acid]

pEC50 (hPPARα chimeric receptor; [1]): 6.35
pEC50 (hPPARβ chimeric receptor): 5.90
Compound: COc1cc(OC)c(SCc2sc(-c3ccc(C(F)(F)F)cc3)nc2C)cc1CC(=O)O [Example 21, {2,4-Dimethoxy-5-[4-methyl-2-(4-trifluoromethyl-phenyl)-thiazol-5-ylmethylsulfanyl]}-acetic acid]

pEC50 (hPPARα chimeric receptor): 6.20
pEC50 (hPPARβ chimeric receptor): 6.19
Compound: COCc1cc(OCC(=O)O)c(C)cc1SCc1sc(-c2ccc(C(F)(F)F)cc2)nc1C [Example 32, 2-[5-(methoxymethyl)-2-methyl-4-({4-methyl-2-[4-(trifluoromethyl)phenyl](1,3-thiazol-5-yl)}methylthio)phenoxy]acetic acid]
